Results from ChEMBL document CHEMBL1151429, “Novel drug resistance pattern associated with the mutations K70G and M184V in human immunodeficiency virus type 1 reverse transcriptase” (2007).

Legend:
Type in all cases: functional
[1] = system: Human immunodeficiency virus 1; assay: Antiviral activity against HIV1 LAI with reverse transcriptase K70E mutation relative to wild type HIV1 LAI
[2] = system: Human immunodeficiency virus 1; assay: Antiviral activity against HIV1 with reverse transcriptase K70E M184V and K70G M184V mutation by antivirogram biological cutoffs assay relative to wild type HIV1
[3] = system: Human immunodeficiency virus 1; assay: Ratio of IC50 for HIV1 with reverse transcriptase K70E/M184V mutation to IC50 for wild type HIV1
[4] = system: Human immunodeficiency virus 1; assay: Ratio of IC50 for HIV1 with reverse transcriptase K70G/M184V mutation to IC50 for wild type HIV1
[5] = system: Human immunodeficiency virus 1; assay: Ratio of IC50 for HIV1 with reverse transcriptase K70G mutation to IC50 for wild type HIV1

| SMILES | fold change (FC) [1] | fold change (FC) [2] | Ratio IC50 [3] | Ratio IC50 [4] | Ratio IC50 [5] |
| --- | --- | --- | --- | --- | --- |
| C[C@H](Cn1cnc2c(N)ncnc21)OCP(=O)(O)OP(=O)(O)OP(=O)(O)O | 2.1 | – | – | – | – |
| Nc1nc(NC2CC2)c2ncn([C@H]3C=C[C@@H](CO)C3)c2n1 [ABACAVIR] | – | 2.2 | 1.3 | 3.2 | 2.1 |
| Nc1nc(=O)c2ncn([C@H]3C=C[C@@H](COP(=O)(O)OP(=O)(O)OP(=O)(O)O)C3)c2[nH]1 [CARBOVIR 5'-TRIPHOSPHATE, (-)-] | 2.3 | – | – | – | – |
| O=c1[nH]cnc2c1ncn2[C@H]1CC[C@@H](CO)O1 [DIDANOSINE] | – | 2.2 | 1.6 | 5.3 | 2.1 |
| Nc1nc(=O)n([C@@H]2CS[C@H](CO)O2)cc1F [EMTRICITABINE] | – | 3.5 | >40.8 | >63.4 | – |
| Nc1ccn([C@@H]2CS[C@H](COP(=O)(O)OP(=O)(O)OP(=O)(O)O)O2)c(=O)n1 [LAMIVUDINE TRIPHOSPHATE] | 3.5 | – | – | – | – |
| Nc1ccn([C@@H]2CS[C@H](CO)O2)c(=O)n1 [LAMIVUDINE] | – | 2.4 | – | – | – |
| Cc1cn([C@H]2C=C[C@@H](CO)O2)c(=O)[nH]c1=O [STAVUDINE] | – | 2.3 | 0.4 | 0.9 | 1.3 |
| C[C@H](Cn1cnc2c(N)ncnc21)OCP(=O)(O)O [TENOFOVIR ANHYDROUS] | – | 2.1 | 1.7 | 1.5 | 1.9 |
| Cc1cn([C@H]2C[C@H](N=[N+]=[N-])[C@@H](CO)O2)c(=O)[nH]c1=O [ZIDOVUDINE] | – | 2.7 | <0.3 | <0.8 | – |
